Reference: PMC11452689 (Communications Biology, 2024)

Test: LUV membrane polarisation, oxonol VI, Na+/K+ gradient
Format: biochemical
Conditions: 100 mM NaCl inside, 100 mM KCl outside, pH 7.2, 0.5 MIC

valinomycin
diffusion potential in the cation gradient LUV model, in words: inside positive polarisation
